How the values were obtained:
T824.1 cell line = assay: MTT cell viability assay on in vivo established paclitaxel-sensitive cell line; type: cell-based; conditions: paclitaxel-sensitive cells transfected with miR-135a mimic
Procedure: (FIG. 7A). The parental A549 cells, a cell line that became refractory during in vivo treatment with paclitaxel (T20.2 round 1) and the same cell line established after yet another round of in vivo paclitaxel treatment (T20.2 reinjection) were treated with paclitaxel and cell viability was assessed using the MTT assay. Represented are average LC50±s.e.m. determined by MTT assay for parental A549 cells (white boxes), **P<0.001, *P<0.05 as determined by Wilcoxon's rank sum test for T20.2 round 1 cells (hatched boxes) and for T20.2 re-injection cells (filled boxes). (FIG. 7B) The expression of miR-135a was examined in these cells by qRT-PCR. *P<0.05 as determined by Wilcoxon's rank sum test. (FIG. 7C) The expression of miR-135a was examined in the cell lines established in vivo. The correlation between paclitaxel response and miR-135a expression was calculated using the Spearman's rank test. […] Subsequently, cells were treated with the indicated concentrations of paclitaxel and cell viability was assessed using the MTT assay. […]
(§1) Cell growth inhibition was determined by a 3-(4,5-dimethylthiazol-2-yl)-2,5-diphenyltetrazolium (MTT) bromide assay. […] Absorbance was determined using a 96-well SpectraMax plate reader (Molecular Devices, Sunnyvale, Calif.) at 560 nm and 650 nm (background). […]

APC 3′-UTR = assay: Luciferase reporter fused to APC 3'-UTR; type: cell-based, human; conditions: 30 nM miR-135a mimic
Excerpt: FIGS. 3A-3E are a series of bar graphs showing that miR-135a modulates APC expression in paclitaxel-resistant cancer cells. MES-SA (FIG. 3A) or A549 (FIG. 3B) cells were transfected with a luciferase reporter construct fused to APC 3′-UTR or a control luciferase reporter vector with a random 3′-UTR (random UTR). Subsequently, cells were cotransfected with either an miR-135a mimic or a non-targeting miRNA control (control miRNA). Values are shown as the percent of luciferase expression compared with the control. *P<0.01 as determined by Wilcoxon's rank sum test. FIG. 3C: Endogenous APC mRNA expression was quantified by RT-PCR analysis in A549, A549^TR, MES-SA and MES-SA^DX5 cells. Bars represent mean and s.e.m. from duplicate experiments. NS: not significant, **P<0.001 as determined by Wilcoxon's rank sum test. In addition, APC protein expression was examined by western blotting (bottom panel). […]
Double-stranded RNA oligos representing a mature sequence that mimics endogenous miR-135a, anti-miR-135a designed to inhibit endogenous miR-135a, and anti-miR negative control were all obtained from Ambion™ and were transfected into cell lines at ˜50% confluence at 30 nM concentration with siLentFect (Bio-Rad™). […] The next day, luciferase activity was measured using the Dual-Glo® Luciferase assay system (Promega™, Madison, Wis.). […]

A549 cells = assay: Annexin V staining and FACS analysis of paclitaxel-induced apoptosis; type: cell-based, human; conditions: transfection with miR-135a mimic, 100 nM paclitaxel; P<0.001
Procedure: (§2) The paclitaxel-resistant cell lines MES-SA^DX5 and A549^TR were transfected with a scrambled non-targeting miRNA (control) and an miR-135a mimic (mimic), respectively. Cells were subsequently treated with 100 nM paclitaxel and cell viability was assessed using the MTT assay (FIGS. 2A, 2B). The percentage of apoptotic cells was assessed by Annexin V-staining and FACS analysis (FIGS. 2C, 2D). Values are presented as percent cell survival in paclitaxel-treated cells relative to untreated cells. *P<0.05, **P<0.001 as determined by Wilcoxon's rank sum test.
Annexin V/7-amino-actinomycin D labeling was performed according to the manufacturer's instructions (BD Pharmingen™, San Diego, Calif., USA, 559 763) and samples were analyzed by flow cytometry. Briefly, cells were treated for 48-72 h with either vehicle or 100 nM paclitaxel. Cells were trypsinized and washed with phosphate-buffered saline before resuspending in assay binding buffer. Annexin V and 7-amino-actinomycin labeling was performed at room temperature for 15 min before analysis by flow cytometry (BD FACScan™, San Jose, Calif., USA).

MES-SA cells = assay: MTT cell viability assay, paclitaxel response; type: cell-based, human; conditions: after transfection with miR-135a mimic, 100 nM paclitaxel
Procedure: as §2
FIGS. 4A-4E are a series of micrographs and line graphs showing that miR-135a-mediated APC suppression contributes to paclitaxel resistance. MES-SA and A549 cells were mock-transfected (mock), transfected with a scrambled siRNA (siControl) or with siRNA directed against APC (siAPC). […] Transfected A549 (FIG. 4B) and MES-SA (FIG. 4C) cells were treated with paclitaxel and viability was assessed using the MTT assay. […] (FIG. 4E) Both A549-shCON and -shAPC cells were treated with paclitaxel and cell viability was measured using the MTT assay. […]
as §1

Substance: miR-135a mimic: double-stranded RNA oligos representing a mature sequence that mimics endogenous miR-135a, from Ambion (sense GTATTGGGCGCCTGGTCACC; antisense CGGGAAGATGGTGATGG; listed as DNA, chemistry not given here)
- paclitaxel-induced cytotoxicity (T824.1 cell line): suppressed paclitaxel-induced cytotoxicity
- targeting of APC 3' untranslated region (luciferase expression) (APC 3′-UTR; A549 cells): targeted the 3′ untranslated region of APC
- targeting of APC 3' untranslated region (luciferase expression) (APC 3′-UTR; MES-SA cells, P=0.029): targeted the 3′ untranslated region of APC
- paclitaxel-induced apoptosis (annexin-positive cells) (A549 cells): decreased paclitaxel-induced apoptosis
- cell survival (MES-SA cells): 43.6%
